# Assay results from article PMC6792352, “Limited Chemical Structural Diversity Found to Modulate Thyroid Hormone Receptor in the Tox21 Chemical Library” (Environmental Health Perspectives, 2019).
# Counter-ions that a name gives are not always drawn.
# Assay: in vitro
# Conditions: rat, gh3-tre-luc cells, AC50 (uM) modified / 1000
row,Structure (SMILES),CC50 at 24 h [µM]
1,CC(C)C[C@H](NC(=O)OCC1c2ccccc2-c2ccccc21)C(=O)O [N-(9-Fluorenylmethoxycarbonyl)-L-leucine],> 90
2,C=CC(=O)OCC(C)OCC(C)OCC(C)OC(=O)C=C (stereo not drawn) [Tripropylene glycol diacrylate],36.2
3,CN1CCN(c2cc3c(cc2F)c(=O)c(C(=O)O)cn3-c2ccc(F)cc2)CC1 [Difloxacin hydrochloride],> 50
4,"O=S(=O)(O)OC[C@H]1O[C@@](COS(=O)(=O)O)(O[C@H]2O[C@H](COS(=O)(=O)O)[C@@H](OS(=O)(=O)O)[C@H](OS(=O)(=O)O)[C@H]2OS(=O)(=O)O)[C@@H](OS(=O)(=O)O)[C@@H]1OS(=O)(=O)O [Sucrose octasulfate, sodium salt]",> 50
5,"C=C(C)C(=O)OCCCCOC(=O)C(=C)C [Butane-1,4-diyl bis(2-methylprop-2-enoate)]",> 90
6,O=C(Nc1ccccc1)c1cc([N+](=O)[O-])ccc1Cl [2-Chloro-5-nitro-N-phenylbenzamide],49.9
7,CCCOC(=O)c1ccccc1 [Propyl benzoate],> 90
8,CC(C)(C)C(=O)C(Oc1ccc(Cl)cc1)n1cncn1 (stereo not drawn) [Triadimefon],> 90
9,O=Cc1ccccc1 [Benzaldehyde],> 90
10,C=COCC(C)C [Vinyl isobutyl ether],> 100
11,"C1COC1 [1,3-Propylene oxide]",> 90
12,CC(C)N1CCN(c2ccc(OC[C@H]3CO[C@](Cn4cncn4)(c4ccc(Cl)cc4Cl)O3)cc2)CC1 (racemic) [Terconazole],5.35
13,Cc1ccc(-c2ccccc2)cc1 [4-Phenyltoluene],> 90
14,c1ccc2[nH]cnc2c1 [Benzimidazole],> 90
15,Cc1nc(NS(=O)(=O)c2ccc(N)cc2)nc(C)c1Br [Sulfabromomethazine],> 50
16,Cc1cc(O)c2c(O)c3c(O)cccc3cc2c1 [Chrysarobin],> 50
17,CN(C)CCCSc1ccccc1NC(=O)/C=C/c1ccccc1 [Cinanserin],22.6
18,"O=C=Nc1ccc(Cc2ccc(N=C=O)cc2)cc1 [4,4'-Diphenylmethane diisocyanate]",> 90
19,COC(N)=O [Methyl carbamate],> 90
20,Cc1cccc(C)c1NC(=O)CN1CCCC1 [Pyrrocaine],> 50
21,C[C@H]1O[C@@H](n2cc(F)c(=O)[nH]c2=O)[C@H](O)[C@@H]1O [Doxifluridine],> 50
22,O=C1NC2NC(=O)NC2N1 (stereo not drawn) [Glycoluril],> 90
23,CCOc1ccc(O)cc1 [4-Ethoxyphenol],> 90
24,CCC1=C[C@@H]2CN(C1)Cc1c([nH]c3ccccc13)[C@@](C(=O)OC)(c1cc3c(cc1OC)N(C)[C@H]1[C@@](O)(C(=O)OC)[C@H](OC(C)=O)[C@]4(CC)C=CCN5CC[C@]31[C@@H]54)C2 [Vinorelbine tartrate],6.67
25,Cn1c(N)nc2nc[nH]c2c1=O [1-Methylguanine],> 90
26,"CC(O)C#CC(C)O (stereo not drawn) [Hex-3-yne-2,5-diol]",50.2
27,C=C[C@]1(C)C[C@@H](OC(=O)CSC(C)(C)CNC(=O)[C@H](N)C(C)C)[C@]2(C)[C@H](C)CC[C@]3(CCC(=O)[C@H]32)[C@@H](C)[C@@H]1O [Valnemulin],2.37

row,Structure (SMILES),CC50 at 24 h [µM]
1,N#CC1(N)CCCCC1 [1-Aminocyclohexanecarbonitrile],> 90
2,CCCCNC(=O)NS(=O)(=O)c1ccc(N)cc1 [Carbutamide],> 90
3,O=C(O)CN1C(=O)c2cccc3cccc(c23)C1=O [Alrestatin],> 50
4,"CCCCOCCOCCOCCOCCO [3,6,9,12-Tetraoxahexadecan-1-ol]",> 90
5,CCCC(=O)CC [3-Hexanone],> 90
6,O=C(O)/C=C/C(O)c1ccc(Cl)cc1 (stereo not drawn) [Sodium (2E)-4-(4-chlorophenyl)-4-hydroxybut-2-enoate hydrate],> 50
7,"Nc1ccc(N=Nc2ccc(N)cc2)cc1 [4,4'-Diaminoazobenzene]",32.1
8,C=CC(=O)NC(C)(C)C [tert-Butylacrylamide],> 90
9,OC[C@H]1O[C@H](O[C@]2(CCl)O[C@H](CCl)[C@@H](O)[C@@H]2O)[C@H](O)[C@@H](O)[C@H]1Cl [Sucralose],> 90
10,CC1(C)Oc2ccc(C#N)cc2[C@@H](N2CCCC2=O)[C@@H]1O [Levcromakalim],> 50
11,O=c1oc2c(O)c(O)cc3c(=O)oc4c(O)c(O)cc1c4c23 [Ellagic acid],> 50
12,CCN(CC)CCNC(=O)c1cc(S(C)(=O)=O)ccc1OC [Tiapride hydrochloride],> 20
13,"CC(O)COCC(C)O (stereo not drawn) [1,1'-Oxybis-2-propanol]",> 90
14,C[C@]12CCC(=O)C=C1CC[C@@H]1[C@@H]2[C@@H](O)C[C@@]2(C)[C@H]1CC[C@]2(O)C(=O)COP(=O)(O)O [Hydrocortisone sodium phosphate],> 50
15,"CC1=Nc2ccccc2C1(C)C [2,3,3-Trimethylindolenine]",> 90
16,CN1CCN(CCCN2c3ccccc3Sc3ccc(C(F)(F)F)cc32)CC1 [Fluoperazine dihydrochloride],7.86
17,C=C(C)C(N)=O [Methacrylamide],> 90
18,C[C@@H](O)[C@H]1C(=O)N2C(C(=O)[O-])=C(SC3Cn4cnc[n+]4C3)[C@H](C)[C@H]12 (stereo partly drawn) [Biapenem],> 50
19,C=C(C)[C@@H]1CCC2=CCC[C@@H](C)[C@]2(C)C1 [Valencene],> 90
20,"O=C(OCC(COC(=O)c1ccccc1)(COC(=O)c1ccccc1)COC(=O)c1ccccc1)c1ccccc1 [2,2-Bis[(benzoyloxy)methyl]dibenzoate propanediol]",> 90
21,CC1(C)S[C@@H]2[C@H](NC(=O)[C@H](N)c3ccccc3)C(=O)N2[C@H]1C(=O)OC1OC(=O)c2ccccc21 (stereo partly drawn) [Talampicillin hydrochloride],> 20
22,CCCCOC(=O)C(=O)Nc1cccc(-c2nnn[nH]2)c1 [Tazanolast],> 50
23,Cc1cc(N)no1 [5-Methyl-3-isoxazolamine],> 100
24,O=S(=O)(O)c1ccc(O)c2ncccc12 [8-Hydroxyquinoline-5-sulfonic acid hydrate (1:x)],> 90
25,CC(C)CC(=O)OCc1ccccc1 [Benzyl 3-methylbutanoate],> 90
26,CN(C)C(=O)CCSC(SCCC(=O)O)c1cccc(/C=C/c2ccc3ccc(Cl)cc3n2)c1 (stereo not drawn) [MK-571 sodium],28.9

# Same assay, conditions: rat, gh3-tre-luc cells, AC50 (uM) modified / 1000, Tox21_110001=Tox21_112402; viability, 1 nM T3 present, 24 h
row,Structure (SMILES),CC50 at 24 h [µM]
1,CC(=O)OO [Peracetic acid],> 50

# Same assay, conditions: rat, gh3-tre-luc cells, AC50 (uM) modified / 1000, Tox21_110001=Tox21_112688; viability, 1 nM T3 present, 24 h
row,Structure (SMILES),CC50 at 24 h [µM]
1,CCCC1CCCCN1 (racemic) [dl-Coniine],> 50

# Same assay, conditions: rat, gh3-tre-luc cells, AC50 (uM) modified / 1000, Tox21_110001=Tox21_113078; viability, 1 nM T3 present, 24 h
row,Structure (SMILES),CC50 at 24 h [µM]
1,CC(C)C[C@H]1C(=O)N2CCC[C@H]2[C@]2(O)O[C@](NC(=O)[C@@H]3C[C@@H]4c5cccc6[nH]cc(c56)C[C@H]4N(C)C3)(C(C)C)C(=O)N12 [Dihydroergocriptine],39.2

# Same assay, conditions: rat, gh3-tre-luc cells, AC50 (uM) modified / 1000, Tox21_110001=Tox21_201593; viability, 1 nM T3 present, 24 h
row,Structure (SMILES),CC50 at 24 h [µM]
1,CCCCOCCOP(=O)(OCCOCCCC)OCCOCCCC [Tris(2-butoxyethyl) phosphate],> 90

# Same assay, conditions: rat, gh3-tre-luc cells, AC50 (uM) modified / 1000, Tox21_110001=Tox21_201641; viability, 1 nM T3 present, 24 h
row,Structure (SMILES),CC50 at 24 h [µM]
1,COP(=O)(OC)OC(Br)C(Cl)(Cl)Br (stereo not drawn) [Naled],48.7

# Same assay, conditions: rat, gh3-tre-luc cells, AC50 (uM) modified / 1000, Tox21_110001=Tox21_202098; viability, 1 nM T3 present, 24 h
row,Structure (SMILES),CC50 at 24 h [µM]
1,COc1nc(NC(C)C)nc(NC(C)C)n1 [Prometon],> 90

# Same assay, conditions: rat, gh3-tre-luc cells, AC50 (uM) modified / 1000, Tox21_110001=Tox21_300845; viability, 1 nM T3 present, 24 h
row,Structure (SMILES),CC50 at 24 h [µM]
1,COP(=O)(OC)OC(Br)C(Cl)(Cl)Br (stereo not drawn) [Naled],49.1

# Same assay, conditions: rat, gh3-tre-luc cells, AC50 (uM) modified / 1000, Tox21_110001=Tox21_301355; viability, 1 nM T3 present, 24 h
row,Structure (SMILES),CC50 at 24 h [µM]
1,CCOP(=O)(Sc1ccccc1)Sc1ccccc1 [Edifenphos],> 90

# Same assay, conditions: rat, gh3-tre-luc cells, AC50 (uM) modified / 1000, Tox21_110001=Tox21_301860; viability, 1 nM T3 present, 24 h
row,Structure (SMILES),CC50 at 24 h [µM]
1,CC(=O)CC(c1ccc(Cl)cc1)c1c(O)c2ccccc2oc1=O (stereo not drawn) [Coumachlor],> 100

# Same assay, conditions: rat, gh3-tre-luc cells, AC50 (uM) modified / 1000, Tox21_110001=Tox21_302891; viability, 1 nM T3 present, 24 h
row,Structure (SMILES),CC50 at 24 h [µM]
1,CCCCOCCOP(=O)(OCCOCCCC)OCCOCCCC [Tris(2-butoxyethyl) phosphate],58.5
